Converted amounts (≈) assume the structure as drawn.
Key:
[1] = target: T1, hA3G degradation mediated by HIV-1 Vif (UniProt P69723+Q9HC16); assay: Screening experiment for up-regulation activity to hA3G (YFP-fused hA3G co-expressed with HIV-1 Vif, fluorescence); assay type: cell-based, human; settings: YFP fluorescence of cells co-expressing Vif and hA3G-YFP; excitation 485 nm, detection 520 nm; averages of duplicates
T1 construct: expressed in transfected cells
Description: Based on the advances making research on the hA3G degradation mediated by HIV-1 Vif, this invention establishes a high throughput anti-HIV-1 drug screening model using hA3G degradation mediated by HIV-1 Vif as target, to screen small molecule active compounds capable of inhibiting this degradation process. The function principle of this model is that HIV-1 Vif protein and hA3G fused yellow fluorescent protein (YFP) co-expressed in the cells, then the intracellular fluorescence intensity (at […]) decreases owing to the degradation of hA3G caused by Vif and subsequent degradation of YEP fused on hA3G. By means of measuring the change of fluorescent intensity, the influence of the screened compounds on the degradation of hA3G caused by Vif can quantitatively be analyzed. Simultaneously, to differentiate the non-specific inhibitory effect of diverse ubiquitin degradation route in the samples, this invention establishes a recheck model based on the detection of P53 degradation caused by the product of adenovirus early gene, to assure that the positive samples screened out by the proposed model can specifically block the degradation of hA3G caused by Vif.
Screening Experiment for Up-Regulation Activity to hA3G
The cells are picked up and cultured a culture bottle. When the cells grow full of the culture bottle, old culture medium is discarded and the cells are digested with digestion medium. When the cells turn round, the digestion medium is discarded and the culture medium is added in at once, the bottom of the bottle is gently blown with a pipette to make the cells disengage the bottle bottom and disperse into single cell suspension. After counting the cells using blood cell counting chamber, the cell suspension is inoculated into a culture dish for transfection. The medium containing the plasmid to be transfected and the transfection reagents is gently mixed up and incubated at room temperature. The medium is then added into the supernatant of the cell culture and cultured for a certain period of time. The old culture medium is then sucked out, the cells are digested with digestive medium, the digestive medium is subsequently discarded and culture medium is immediately added. The medium is gently blown to disperse the cells into single cell suspension. After counting the cells using blood cell counting chamber, the cells are ready for inoculation.
Samples of compounds[…]Pure tested compounds are dissolved in DMSO, the solution is diluted with equal proportional distilled water. The diluent is used to test the cell systems.
Sample solution of different concentration is added into the supernatant of a cell culture. After the cells are continuously cultured, old culture medium is sucked out and the cells are blown with PBS buffer until the cells completely disengage from the culture bottle.
The fluorescence intensity values of the cell suspension with test compound samples, positive control samples and negative control samples are respectively measured with fluorometer, the excitation wavelength is 485 nm and the detection wavelength 520 nm. Averages of duplicated measurements are taken as the results.
The measured fluorescence intensity values of the negative control samples (blink sample) subtracted from those of test compound samples, the results are taken as YFP fluorescence of different groups. Relative fluorescence intensity=fluorescence intensity of a test sample group/fluorescence intensity of the positive control group×100% Inhibition rate of degradation=(test sample group−negative control group)/(positive control group−negative control group)×100%

HIV-1 [2] = settings: HIV-1 P24 antigen in supernatant 4 days (96 h) after addition of compounds
Description: (§1) The inhibitory activities of the compounds proposed in this invention to HIV-1 were measured using HIV-1 P24 antigen kit.
(§2) DMSO solutions of samples of test compounds listed in Table 2 diluted to 8 different concentrations and the solution of the positive control AZT (azidothymidine, 0.15 ng/ml) are respectively added into 96 well plates, duplications are set for each of the dilutions, and negative control samples are also made. Aliquots of 100 μl 2×10^5 cell/ml suspension are inoculated onto the 96 well cell culture plates and cultured in an incubator under a condition of 37° C., 5% CO2 and saturated humidity. The pathologic changes of the cells are observed every day. The HIV-1 P24 antigen contents in supernatant cells are measured in 4 days (96 h) after addition of the test compounds according to the operation procedure provided by the HIV-1 P24 antigen kit.

HIV-1 [3] = assay: microbe, parasite or virus in culture; settings: Human immunodeficiency virus 1, 96 h, read-out: inhibitory activity to HIV-1, IC50
Description: as §1, §2

T1 sequence (P69723 whole entry, the tested form may be a part): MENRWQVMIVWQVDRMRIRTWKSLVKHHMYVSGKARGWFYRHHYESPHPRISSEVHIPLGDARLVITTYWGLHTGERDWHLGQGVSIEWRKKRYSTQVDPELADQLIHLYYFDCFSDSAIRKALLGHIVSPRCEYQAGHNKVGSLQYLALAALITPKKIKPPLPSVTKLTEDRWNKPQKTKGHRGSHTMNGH
T1 sequence (Q9HC16 whole entry, the tested form may be a part): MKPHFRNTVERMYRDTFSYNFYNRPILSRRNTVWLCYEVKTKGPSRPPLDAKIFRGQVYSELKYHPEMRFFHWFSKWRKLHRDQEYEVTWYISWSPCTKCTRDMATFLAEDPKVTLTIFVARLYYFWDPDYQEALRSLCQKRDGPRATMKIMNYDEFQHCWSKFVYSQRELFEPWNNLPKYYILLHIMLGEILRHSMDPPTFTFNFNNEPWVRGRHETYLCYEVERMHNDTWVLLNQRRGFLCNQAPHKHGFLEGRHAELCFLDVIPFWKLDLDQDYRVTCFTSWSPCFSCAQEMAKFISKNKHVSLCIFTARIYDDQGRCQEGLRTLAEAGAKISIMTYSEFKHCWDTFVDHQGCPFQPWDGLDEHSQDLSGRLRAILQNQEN

`COc1ccc(C(=O)Oc2cc(OC)c(OC)c(OC)c2)cc1N` [Compound 352, 3′,4′,5′-trimethoxyphenyl 3-amino-4-methoxybenzoate] was tested, and the “hA3G up-regulation activity (%)” value [1] was 37.0% and the “inhibitory activity to HIV-1, IC50” value (HIV-1 [2]) was 0.0554 µg/mL.

In the case of `COc1ccc(C(=O)Nc2cc(OC)c(OC)c(OC)c2)cc1NC(=O)C(C)Br` (stereo not shown) [Compound 26], the IC50 (HIV-1 [3]) is reported as 0.0203 µg/mL (≈ 0.0434 µM) and the “hA3G up-regulation activity (%)” value [1] is reported as 42.7%.

For `COc1ccc(C(=O)Oc2cc(OC)c(OC)c(OC)c2)cc1NC(=O)C(C)Br` (stereo not shown) [Compound 35], the IC50 (HIV-1 [3]) was 0.0223 µg/mL (≈ 0.0476 µM) and the “hA3G up-regulation activity (%)” value [1] was 44.9%.

For `COc1ccc(C(=O)Nc2cc(OC)c(OC)c(OC)c2)cc1NC(=O)C(F)(F)F` [Compound 263, N-(3′,4′,5′-trimethoxyphenyl)-3-trifluoroacetamido-4-methoxybenzamide], the IC50 (HIV-1 [3]) was less than 0.0137 µg/mL and the “hA3G up-regulation activity (%)” value [1] was 24.4%.

`CCC(=O)Nc1cc(C(=O)Nc2ccc(OC)cc2)ccc1OC` [Compound 2611, N-(4′-methoxyphenyl)-3-propionamido-4-methoxybenzamide] was tested, and the IC50 (HIV-1 [3]) was 0.017 µg/mL (≈ 0.0518 µM) and the “hA3G up-regulation activity (%)” value [1] was 28.9%.

`CCC(=O)Nc1cc(C(=O)Nc2ccc(Cl)cc2)ccc1OC` [Compound 2613, N-(4′-chlorophenyl)-3-propionamido-4-methoxybenzamide] was tested, and the IC50 (HIV-1 [3]) was 0.0138 µg/mL (≈ 0.0415 µM) and the “hA3G up-regulation activity (%)” value [1] was 27.8%.

For `COc1ccc(C(=O)Nc2cc(OC)c(OC)c(OC)c2)cc1N` [Compound 262, N-(3′,4′,5′-trimethoxyphenyl) 3-amino-4-methoxybenzamide], the IC50 (HIV-1 [3]) was 0.0244 µg/mL (≈ 0.0734 µM) and the “hA3G up-regulation activity (%)” value [1] was 36.2%.

“3-amino-4-methoxybenzanilide [Compound 2621]” was tested, and the “hA3G up-regulation activity (%)” value [1] was 36.2% and the “inhibitory activity to HIV-1, IC50” value (HIV-1 [2]) was less than 0.0137 µg/mL.

In the case of `CCC(=O)Nc1cc(C(=O)Nc2cc(OC)c(OC)c(OC)c2)ccc1OC` [Compound 261, N-(3′,4′,5′-trimethoxyphenyl) 3-propionamido-4-methoxybenzamide], the IC50 (HIV-1 [3]) is reported as 0.0227 µg/mL (≈ 0.0584 µM) and the “hA3G up-regulation activity (%)” value [1] is reported as 43.9%.

With `CCC(=O)Nc1cc(C(=O)Nc2cc(OC)nc(OC)n2)ccc1OC` [Compound 33] the “hA3G up-regulation activity (%)” value [1] was 21.5%.

For `CCC(=O)Nc1cc(C(=O)Oc2cc(OC)c(OC)c(OC)c2)ccc1OC` [Compound 351, 3′,4′,5′-trimethoxyphenyl 3-propionamido-4-methoxybenzoate], the IC50 (HIV-1 [3]) was 0.0299 µg/mL (≈ 0.0768 µM) and the “hA3G up-regulation activity (%)” value [1] was 36.7%.

With `COc1ccc(C(=O)Nc2cc(OC)c(OC)c(OC)c2)cc1NC(=O)CCl` [Compound 1, N-(3′,4′,5′-trimethoxyphenyl)-3-(2-chloroacetamido)-4-methoxybenzamide] the “hA3G up-regulation activity (%)” value [1] was 36.3%.

With `COc1ccc(C(=O)Oc2cc(OC)c(OC)c(OC)c2)cc1NC(=O)C(C)F` (stereo not shown) [Compound 24] the “hA3G up-regulation activity (%)” value [1] was 18.6%.

In the case of `CCC(=O)Nc1cc(C(=O)Cc2cc(OC)c(OC)c(OC)c2)ccc1OC` [Compound 10, 1′-(3-propionamido-4-methoxy-benzoyl)methylene-3′,4′,5′-trimethoxybenzene], the “hA3G up-regulation activity (%)” value [1] is reported as 28.9%.

For `COc1ccc(C(=O)Nc2cc(OC)c(OC)c(OC)c2)cc1NC(C)=O` [Compound 11], the “hA3G up-regulation activity (%)” value [1] was 22.2%.

`COc1ccc(C(=O)Sc2cc(OC)c(OC)c(OC)c2)cc1NC(=O)CF` [Compound 19] was tested, and the “hA3G up-regulation activity (%)” value [1] was 44.3%.

With `CCC(=O)Nc1cc(C(=O)Nc2ccc(N)c(F)c2)ccc1OC` [Compound 80, N-(3′-fluoro-4′-aminophenyl)-3-propionamido-4-methoxybenzamide] the “hA3G up-regulation activity (%)” value [1] was 37.1%.

For `CCC(=O)Nc1cc(C(O)Cc2cc(OC)c(OC)c(OC)c2)ccc1OC` (stereo not shown) [Compound 32, 1-(3′-propionamido-4′-methoxyphenyl)-2-(3″,4″,5″-trimethoxyphenyl)ethanol], the “hA3G up-regulation activity (%)” value [1] was 17.6%.

For `COc1ccc(C(=O)Oc2cc(OC)c(OC)c(OC)c2)cc1NC(C)=O` [Compound 12], the “hA3G up-regulation activity (%)” value [1] was 31.6%.

With `CCC(=O)Nc1cc(OC)ccc1C(=O)Nc1cc(OC)c(OC)c(OC)c1` [Compound 63, N-(3′,4′,5′-trimethoxyphenyl)-2-propionamido-4-methoxybenzamide] the “hA3G up-regulation activity (%)” value [1] was 21.3%.

In the case of `CCC(=O)Nc1cc(S(=O)(=O)Nc2cc(OC)nc(OC)n2)ccc1OC` [Compound 93], the “hA3G up-regulation activity (%)” value [1] is reported as 34.2%.

`COc1ccc(C(=O)Nc2cc(OC)c(OC)c(OC)c2)cc1C#N` [Compound 68, N-(3′,4′,5′-trimethoxyphenyl)-3-cyano-4-methoxybenzamide] was tested, and the “hA3G up-regulation activity (%)” value [1] was 9.8%.

`CCC(=O)Nc1cc(C(=O)Nc2cc(OC)ncn2)ccc1OC` [Compound 47] was tested, and the “hA3G up-regulation activity (%)” value [1] was 18.2%.

`CNc1cc(C(=O)Nc2cc(OC)cc(OC)c2)ccc1OC` [Compound 40, N-(3′,5′-dimethoxyphenyl)-3-methylamino-4-methoxybenzamide] was tested, and the “hA3G up-regulation activity (%)” value [1] was 12.7%.

`CCC(=O)Nc1cc(NNc2cc(OC)c(OC)c(OC)c2)ccc1OC` [Compound 89] was tested, and the “hA3G up-regulation activity (%)” value [1] was 31.3%.

For `CCNc1cc(C(=O)Nc2ccc(OC)cc2)ccc1OC` [Compound 37], the “hA3G up-regulation activity (%)” value [1] was 7.7%.

In the case of `CCC(=O)Nc1cc(S(=O)(=O)Nc2ccc(OC)c(OC)c2)ccc1OC` [Compound 94], the “hA3G up-regulation activity (%)” value [1] is reported as 16.1%.

For `CCC(=O)Nc1cc(S(=O)(=O)Oc2cc(OC)c(OC)c(OC)c2)ccc1OC` [Compound 84, 3′,4′,5′-trimethoxyphenyl 3-propionamido-4-methoxybenzenesulfonate], the “hA3G up-regulation activity (%)” value [1] was 9.0%.

`CCC(=O)Nc1cc(OC(=O)c2cc(OC)c(OC)c(OC)c2)ccc1OC` [Compound 62] was tested, and the “hA3G up-regulation activity (%)” value [1] was 40.1%.

In the case of `CCC(=O)Nc1cc(C(=O)Nc2cc(OC)c(OC)c(OC)c2)cc(OC)c1F` [Compound 75, N-(3′,4′,5′-trimethoxyphenyl)-3-propionamido-4-fluoro-5-methoxybenzamide], the “hA3G up-regulation activity (%)” value [1] is reported as −1.1%.

`CCNc1cc(C(=O)Nc2ccc(OC)c(OC)c2)ccc1OC` [Compound 36] was tested, and the “hA3G up-regulation activity (%)” value [1] was 8.6%.

`COc1ccc(C(=O)Cc2cc(OC)c(OC)c(OC)c2)cc1NC(=O)C(C)F` (stereo not shown) [Compound 25, 3-(2″-fluoropropionamido)-4-methoxybenzoylmethylene-3′,4′,5′-trimethoxybenzene] was tested, and the “hA3G up-regulation activity (%)” value [1] was 19.4%.

For `CCC(=O)Nc1cc(C(=O)Nc2cc(OC)c[nH]2)ccc1OC` [Compound 49, N-(4′-methoxypyrryl-2′-)-4-methoxy-3-propionamidobenzamide], the “hA3G up-regulation activity (%)” value [1] was 9.8%.

For `CCC(=O)Nc1cc(C(=O)Sc2cc(OC)c(OC)c(OC)c2)ccc1OC` [Compound 9, S-(3′,4′,5′-trimethoxyphenyl) 3-propionamido-4-methoxybenzenecarbothiolate], the “hA3G up-regulation activity (%)” value [1] was 46.5%.

In the case of `CCNc1cc(C(=O)Nc2ccc(OC)cc2)ccc1OC` [Compound 42], the “hA3G up-regulation activity (%)” value [1] is reported as 34.3%.

With `CCC(=O)Nc1cc([S+]([O-])Nc2cc(OC)c(OC)c(OC)c2)ccc1OC` (stereo not shown) [Compound 82] the “hA3G up-regulation activity (%)” value [1] was 28.5%.

For `CCC(=O)Nc1cc(C(=O)Nc2ccccc2)ccc1OC` [Compound 60], the “hA3G up-regulation activity (%)” value [1] was 16.3%.

With `COc1ccc(C(=O)Cc2cc(OC)c(OC)c(OC)c2)cc1NC(=O)C(C)Cl` (stereo not shown) [Compound 16] the “hA3G up-regulation activity (%)” value [1] was 17.3%.

With `COc1ccc(C(=O)Nc2cc(OC)c(OC)c(OC)c2)cc1NC(=O)CBr` [Compound 29] the “hA3G up-regulation activity (%)” value [1] was 25.3%.

In the case of `COc1ccc(C(=O)Cc2cc(OC)c(OC)c(OC)c2)cc1N` [Compound 6], the “hA3G up-regulation activity (%)” value [1] is reported as 28.7%.

With `CCC(=O)Nc1cc(C(=O)Nc2ccc(OC(F)(F)F)cc2)ccc1F` [Compound 70] the “hA3G up-regulation activity (%)” value [1] was 24.7%.

For `COc1ccc(C(=O)Oc2cc(OC)c(OC)c(OC)c2)cc1NC(=O)CF` [Compound 18], the “hA3G up-regulation activity (%)” value [1] was 34.5%.

For `CCC(=O)Nc1cc(C(=O)Nc2cccc(O)c2)ccc1OC` [Compound 50], the “hA3G up-regulation activity (%)” value [1] was −3.1%.

`CCC(=O)Nc1cc(C(=O)Nc2ccc(S(N)(=O)=O)c(F)c2)ccc1OC` [Compound 100] was tested, and the “hA3G up-regulation activity (%)” value [1] was 13.6%.

For `COc1ccc(C(=O)Nc2cc(OC)c(OC)c(OC)c2)cc1NC(=O)C(C)Cl` (stereo not shown) [Compound 14], the “hA3G up-regulation activity (%)” value [1] was 11.2%.

— patent US8710098B2, “Group of amino substituted benzoyl derivatives and their preparation and their use” (priority 2008, dated 2014)
